Results reported in article PMC10584170, “Machine learning-based phenotypic imaging to characterise the targetable biology of Plasmodium falciparum male gametocytes for the development of transmission-blocking antimalarials” (PLOS Pathogens, 2023).
Where two headings read alike, the source gives them in different places.

Assays:
[1] = tested on: P. falciparum male gametocytes; assay: P. falciparum Dual Gamete Formation Assay (PfDGFA), male readout (exflagellation); format: cell-based, Plasmodium falciparum NF54; details: for Activity: hit = >50% inhibition in male or female readout in at least 3 replicates, 0 = no class assigned
Outline: (§1)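 Day-14 NF54 gametocytes were incubated with compound for 24 h at 37°C under 1% O2/3% CO2/96% N2. Gametogenesis was triggered with ookinete medium (0.1 μM xanthurenic acid) plus Cy3-anti-Pfs25, and exflagellation was imaged by brightfield after cooling to 4°C then 28°C. Females were imaged by Pfs25 fluorescence 24 h later at 28°C.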

[2] = tested on: P. falciparum female gametocytes; assay: P. falciparum Dual Gamete Formation Assay (PfDGFA), female readout (Pfs25-positive female gametes); format: cell-based, Plasmodium falciparum NF54
Outline: as §1

[3] = PfDGFA at 2µM, 24h preincubation with gametocytes, average of replicates
[4] = PfDGFA at 2µM, 24h preincubation with gametocytes, replicate R1
[5] = PfDGFA at 2µM, 24h preincubation with gametocytes, replicate R3
[6] = PfDGFA at 2µM, 24h preincubation with gametocytes, replicate R4
[7] = number of replicates with >50% inhibition in the male readout, 2µM
[8] = number of replicates with >50% inhibition in the female readout, 2µM
[9] = 2µM, 24h preincubation with gametocytes prior to induction of gametogenesis, average of replicates
[10] = 2µM, 24h preincubation with gametocytes prior to induction of gametogenesis, replicate R1
[11] = 2µM, 24h preincubation with gametocytes prior to induction of gametogenesis, replicate R3
[12] = 2µM, 24h preincubation with gametocytes prior to induction of gametogenesis, replicate R4
[13] = 2µM, 24h preincubation, hits selected on >50% inhibition in the male readout across replicates
[14] = PfDGFA at 2µM, 24h preincubation
[15] = 2µM, 24h preincubation, hits selected on >50% inhibition in the female readout across replicates
[16] = PfDGFA at 2µM, 24h preincubation with gametocytes prior to induction of gametogenesis, replicate R1
[17] = PfDGFA at 2µM, 24h preincubation with gametocytes prior to induction of gametogenesis, replicate R3
[18] = PfDGFA at 2µM, 24h preincubation with gametocytes prior to induction of gametogenesis, replicate R4
[19] = PfDGFA at 2µM, 24h preincubation, average of replicates

SMILES	Average inhibition male (%) [1, 9] [%]	% inhibition male (individual replicates) R1 [1, 10] [%]	% inhibition male (individual replicates) R3 [1, 11] [%]	% inhibition male (individual replicates) R4 [1, 12] [%]	HitlevelM [1, 13]	Activity [1, 14]	Average inhibition female (%) [2, 9] [%]	% inhibition female (individual replicates) R1 [2, 10] [%]	% inhibition female (individual replicates) R3 [2, 11] [%]	% inhibition female (individual replicates) R4 [2, 12] [%]	HitlevelF [2, 15]	other results
CC(C)CNCc1ccc(-c2cccc(CN(CCN(C)C)C(=O)CCC3CCCC3)c2)cc1.O=C(O)C(F)(F)F [TCMDC-140553]												Average inhibition male (%) [1, 3]: 71.6%; % inhibition male (individual replicates) R1 [1, 4]: 58.5%; % inhibition male (individual replicates) R3 [1, 5]: 51.6%; % inhibition male (individual replicates) R4 [1, 6]: 94.9%; HitlevelM [1, 7]: 4; Average inhibition female (%) [2, 3]: 30.3%; % inhibition female (individual replicates) R1 [2, 4]: 23.2%; % inhibition female (individual replicates) R3 [2, 5]: 20.6%; % inhibition female (individual replicates) R4 [2, 6]: 42.3%; HitlevelF [2, 8]: 0
CC(C)(CN)c1nc(-c2ccc(Br)c(O)c2)c(-c2ccncc2)[nH]1.Cl [TCMDC-140680]												Selectivity Ratio M ([1]; HepG2 Tox50 versus male IC50): 67.46; inhibition at 2 µM ([1]; Plasmodium falciparum, PfDGFA at 2µM, 24h preincubation with gametocytes, average of replicates, read-out: Average inhibition male (%)): 80.7%; inhibition at 2 µM ([1]; Plasmodium falciparum, PfDGFA at 2µM, 24h preincubation with gametocytes, replicate R1, read-out: % inhibition male (individual replicates) R1): 55.5%; inhibition at 2 µM ([1]; Plasmodium falciparum, PfDGFA at 2µM, 24h preincubation with gametocytes, replicate R2, read-out: % inhibition male (individual replicates) R2): 95.4%; inhibition at 2 µM ([1]; Plasmodium falciparum, PfDGFA at 2µM, 24h preincubation with gametocytes, replicate R3, read-out: % inhibition male (individual replicates) R3): 94%; inhibition at 2 µM ([1]; Plasmodium falciparum, PfDGFA at 2µM, 24h preincubation with gametocytes, replicate R4, read-out: % inhibition male (individual replicates) R4): 77.9%; IC50 ([1]; Plasmodium falciparum, PfDGFA, 24 h incubation with gametocytes before induction, exflagellation readout, read-out: Male IC50): 1480 nM; HitlevelM [1, 7]: 4; Selectivity ratio F ([2]; HepG2 Tox50 versus female IC50): 175.05; inhibition at 2 µM ([2]; Plasmodium falciparum, PfDGFA at 2µM, 24h preincubation with gametocytes, average of replicates, read-out: Average inhibition female (%)): 96%; inhibition at 2 µM ([2]; Plasmodium falciparum, PfDGFA at 2µM, 24h preincubation with gametocytes, replicate R1, read-out: % inhibition female (individual replicates) R1): 91.3%; inhibition at 2 µM ([2]; Plasmodium falciparum, PfDGFA at 2µM, 24h preincubation with gametocytes, replicate R2, read-out: % inhibition female (individual replicates) R2): 95.4%; inhibition at 2 µM ([2]; Plasmodium falciparum, PfDGFA at 2µM, 24h preincubation with gametocytes, replicate R3, read-out: % inhibition female (individual replicates) R3): 104%; inhibition at 2 µM ([2]; Plasmodium falciparum, PfDGFA at 2µM, 24h preincubation with gametocytes, replicate R4, read-out: % inhibition female (individual replicates) R4): 93%; IC50 ([2]; Plasmodium falciparum, PfDGFA, 24 h incubation with gametocytes before induction, female gamete readout, read-out: Female IC50): 570 nM; HitlevelF [2, 8]: 4
CN1CCC(N2CCN(CCOc3cc(NC(=O)/C=C/c4ccccc4Cl)ccc3Br)CC2)CC1.O=C(O)C(=O)O [TCMDC-140962]	15.3	25.8	-8.5	17.6	0	0	8.6	14.8	-6.3	11.7	0	
COc1cc2c(cc1OCCN1CCC(N)CC1)N(C(=O)/C=C/c1ccccc1Cl)CC2.Cl [TCMDC-140969]	28.3	26.3	11.1	42.2	0	0	11.8	7.5	2.9	33.3	0	
CC1(CCN2CCC(c3c[nH]c4cnccc34)CC2)CCCc2c(Br)cccc2C1=O.Cl (stereo not drawn) [TCMDC-141171]	55.1	49.5		49.8	1	0	14.9	12.8	15.8	19.7	0	
CC1(CCCCN2CCC(c3c[nH]c4cnccc34)CC2)C(=O)Nc2cccc(Cl)c21 (stereo not drawn) [TCMDC-141177]	42.5	42.7	28.4	48.2			23.5	22.1	12.9	47.7		HitlevelM ([1]; 2µM, 24h preincubation, number of replicates with >50% inhibition in the male readout): 1; HitlevelF ([2]; 2µM, 24h preincubation, number of replicates with >50% inhibition in the female readout): 0
O=C(O)C(F)(F)F.O=[N+]([O-])c1cccc(CNCC2CCN(Cc3ccc(-c4ccccc4)cc3)CC2)c1 [TCMDC-141208]	36.0	32.1	8.2	53.6	2	0	6.3	-1.5	6.7	13.0	0	
Cc1cc(F)ccc1-c1nc(Nc2ccncc2)c2ccn(C)c2n1 [TCMDC-141231]												% inhibition male (individual replicates) R1 [1, 16]: -14.5%; % inhibition male (individual replicates) R3 [1, 17]: -17.7%; % inhibition male (individual replicates) R4 [1, 18]: 32.9%; Average inhibition male (%) [1, 19]: -2.0%; % inhibition female (individual replicates) R1 [2, 16]: 10.5%; % inhibition female (individual replicates) R3 [2, 17]: -5.5%; % inhibition female (individual replicates) R4 [2, 18]: -9.9%; Average inhibition female (%) [2, 19]: -2.8%
